According to US8328934B2, “Crystal of GTP Cyclohydrolase Type IB” (priority 2007, dated 2012):
Like-named read-outs stand apart in the source and are kept apart here.

Columns and labels:
Assay type in all cases: biochemical
B. subtilis GCYH-IB [1] = molecular target: T1, B. subtilis GCYH-IB (Bacillus subtilis, UniProt P94398); conditions: for [Metal] (metal concentration for optimal activity): apoenzyme 2 μM, metal 0.1 μM-4 mM, 0.1 mM GTP; for metal ion supports catalysis: apoenzyme assayed with specific metal ions over a broad concentration range; for relative activity (%): at the metal concentration for optimal activity, relative to Mn(II)
T1 construct: His6 (cleaved yes); made in house; host or cells: E. coli BL21 (DE3), pET-30 Xa/LIC plasmid pSAB-9-61
T1 sequence (P94398 1-304): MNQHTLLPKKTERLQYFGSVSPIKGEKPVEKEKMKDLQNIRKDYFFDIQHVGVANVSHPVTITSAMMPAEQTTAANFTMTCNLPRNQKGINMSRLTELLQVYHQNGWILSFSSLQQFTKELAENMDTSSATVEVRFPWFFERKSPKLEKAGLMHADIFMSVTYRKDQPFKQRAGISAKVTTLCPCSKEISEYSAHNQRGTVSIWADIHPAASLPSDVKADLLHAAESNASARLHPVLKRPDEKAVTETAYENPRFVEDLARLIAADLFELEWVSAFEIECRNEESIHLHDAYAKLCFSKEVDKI
Protocol: It is well established that GCYH-IA uses a bound Zn^2+ ion for activity. Nichol et al., 1985. To investigate the metal dependence of GCYH-IB, the purified recombinant B. subtilis enzyme was assayed for activity in the presence of a variety of metal ions or EDTA. […] To obtain unambiguous, quantitative data on the effect of various metal ions on catalytic activity, the enzyme was first demetallated by dialyzing against an EDTA/Chelex-containing buffer to generate the apoenzyme, which was then assayed in the presence of specific metal ions over a broad concentration range.
(§1) Enzyme Activity Assays: All chemicals were of analytical, metal-free grade from Sigma or Fisher. All solutions were prepared with Milli-Q water (18.2 MΩ) and treated with Chelex-100 (BioRad) to remove contaminating metals. Glassware were soaked in nitric acid (10%), then EDTA (5 mM) and rinsed liberally with Chelex-treated Milli-Q water before use. Activity assays were conducted as described previously (El Yacoubi et al, 2006) using either variable concentrations of metal or EDTA (5 mM), and 0.1 mM GTP.
(§2) Apoenzyme Preparation: Metal ions were removed from B. subtilis and N. gonorrhoeae GCYH-IB by incubating the purified, recombinant protein (0.5 ml) with EDTA (5 mM, 1 hr, 21° C.) followed by dialysis thrice against a 4-liter solution of Tris-HCl (50 mM, pH 8.0), KCl (50 mM), EDTA (5 mM) and a few grams of Chelex-100. The resulting apoenzyme was dialyzed thrice against 3 L of Tris-HCl (50 mM, pH 8.0), KCl (50 mM), and Chelex-100 to remove EDTA and passed through Chelex-100 resin (5 ml protein solution per 3 ml resin) prior to activity assays. Protein concentrations were determined spectrophotometrically.
Metal Activation Studies: The B. subtilis apoenzyme (2 μM) was incubated with varying concentrations (0.1 μM-4 mM) of metal chlorides (MnCl2, ZnCl2, MgCl2, NiCl2, CaCl2, CdCl2, CoCl2, CuCl2, CoCl3, FeCl3) or Fe(SO4) in standard buffer (100 mM HEPES, pH 8.0, 100 mM KCl) for 10 min at 37 C, and assayed for activity as described above. All assays involving Fe^2+ were conducted in an anaerobic chamber with degassed and N2-purged buffers.

N. gonorrhoeae GCYH-IB = molecular target: T2, N. gonorrhoeae GCYH-IB (Neisseria gonorrhoeae, UniProt Q5F9K6); assay: Effect of zinc on GCYH-IB activity in the presence of Mn(II); conditions: 600 μM Mn(II)
T2 construct: His6 (cleaved yes); made in house; host or cells: E. coli BL21 (DE3), pET-30 Xa/LIC plasmid pSAB-8-142
T2 sequence (Q5F9K6 1-257): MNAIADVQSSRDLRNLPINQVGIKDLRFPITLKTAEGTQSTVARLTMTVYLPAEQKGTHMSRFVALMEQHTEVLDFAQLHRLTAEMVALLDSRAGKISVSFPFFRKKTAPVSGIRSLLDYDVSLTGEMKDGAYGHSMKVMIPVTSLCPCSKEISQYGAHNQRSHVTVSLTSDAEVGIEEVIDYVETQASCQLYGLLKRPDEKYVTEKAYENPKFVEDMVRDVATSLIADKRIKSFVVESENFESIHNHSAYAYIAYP
Protocol: (§3) The presence of both Zn^2+ and Mn^2+ in a reaction assay results in diminished activity (i.e. Zn^2+ is an inhibitor versus Mn^2+, Table 6). All of the metals bind the enzymes with low affinity, such that running the protein over a G-25 column or dialyzing against metal free buffer removed the protein bound metal.
as §1, §2

B. subtilis GCYH-IB [2] = molecular target: T1, B. subtilis GCYH-IB; assay: as above; conditions: 600 μM Mn(II)
Protocol: as §3, §1, §2

SMILES | [Metal] (metal concentration for optimal activity) (B. subtilis GCYH-IB [1]) [µM] | metal ion supports catalysis (B. subtilis GCYH-IB [1]) | relative activity (%) (B. subtilis GCYH-IB [1]) | also measured
[Mg+2] [Mg(II)] | 100 | catalysis is supported | 43 ± 4 | –
[Co+2] [Co(II)] | 100 | – | 24 ± 3 | –
[Zn+2] [Zn(II)] | 50 | catalysis is supported | 14 ± 1 | optimum metal concentration required for catalysis, fold lower than for Mn^2+ (B. subtilis GCYH-IB [1]; Zn^2+ versus Mn^2+): roughly 10 fold; relative activity (%) (N. gonorrhoeae GCYH-IB; 0.5 μM zinc): 93%; relative activity (%) (N. gonorrhoeae GCYH-IB; 1 μM zinc): 68%; relative activity (%) (N. gonorrhoeae GCYH-IB; 2 μM zinc): 57%; relative activity (%) (N. gonorrhoeae GCYH-IB; 4 μM zinc): 47%; relative activity (%) (N. gonorrhoeae GCYH-IB; 10 μM zinc): 53%; relative activity (%) (N. gonorrhoeae GCYH-IB; 20 μM zinc): 45%; relative activity (%) (N. gonorrhoeae GCYH-IB; 40 μM zinc): 45%; relative activity (%) (B. subtilis GCYH-IB [2]; 0.5 μM zinc): 84%; relative activity (%) (B. subtilis GCYH-IB [2]; 1 μM zinc): 41%; relative activity (%) (B. subtilis GCYH-IB [2]; 2 μM zinc): 34%; relative activity (%) (B. subtilis GCYH-IB [2]; 4 μM zinc): 35%; relative activity (%) (B. subtilis GCYH-IB [2]; 10 μM zinc): 35%; relative activity (%) (B. subtilis GCYH-IB [2]; 20 μM zinc): 26%; relative activity (%) (B. subtilis GCYH-IB [2]; 40 μM zinc): 23%
O=C(O)CN(CCN(CC(=O)O)CC(=O)O)CC(=O)O [EDTA, reference compound] | – | – | – | activity in the presence of EDTA (B. subtilis GCYH-IB [1]): no activity was observed
[Ni+2] [Ni(II)] | 100 | catalysis is supported | 9.8 ± 1.3 | –
[Mn+2] [Mn(II)] | 500 | catalysis is supported | 100 | –
[Fe+3] [Fe(III)] | – | – | 0 | –
[Fe+2] [Fe(II)] | 1000 | – | 75 ± 8 | –
[Cu+2] [Cu(II)] | – | fail to support activity | 0 | –
[Cd+2] [Cd(II)] | – | fail to support activity | 0 | –
[Ca+2] [Ca(II)] | – | fail to support activity | 0 | –
[Co+3] [Co(III)] | – | – | 0 | –
